Laboratory results: the NIST ThermoML archive (doi:10.1021/acs.jced.5b00804)
Numbers after ± are expanded uncertainties.

Conditions: 101.33 kPa, Liquid; for viscosity: Capillary tube (Ostwald / Ubbelohde) method; for mass density: Pycnometric method

NCCN [ethane-1,2-diamine]
Conditions | mass density [kg/m3] | viscosity [mPa·s]
303.15 K | 890.3 ± 1.8 | 1.26 ± 0.02
308.15 K | 885.9 ± 1.8 | 1.18 ± 0.02
313.15 K | 881.7 ± 1.8 | 1.03 ± 0.01
318.15 K | 876.9 ± 1.8 | 0.938 ± 0.011
323.15 K | 871.3 ± 1.8 | 0.905 ± 0.011
